Experimental data published in PubChem BioAssay AID2060910 (Molecular Pharmacology Branch, DTP, NCI, 2025).

Tested on: 242566-281-R-J2-PDC complex spheroid viability
Assay: Anticancer human tumor 242566-281-R-J2-PDC patient-derived pancreatic carcinoma cell line growth inhibition [RAS]
Conditions: for IC50: curve of first compound; for viability, T/C: stronger effect = lower value
Summary of the method: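 Tumour cells grown as complex spheroids with HUVEC endothelial cells and mesenchymal stem cells, treated with RAS pathway inhibitor combinations. Each agent spans half-log steps from near clinical Cmax, or 10 microM where Cmax is unknown.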
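Note: spheroids exposed to compound for 7 days before readout.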
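Throughout, for viability, T/C: 100% = DMSO vehicle control wells.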

CCc1c2c(nc3ccc(O)cc13)-c1cc3c(c(=O)n1C2)COC(=O)[C@]3(O)CC + CCn1c(-c2cccnc2C(C)OC)c2c3cc(ccc31)N1CCOC(CC(NC(=O)C(C(C)C)N(C)C(=O)C3(F)CCN(C(=O)C#CC(C)(C)N(C)C)CC3)C(=O)N3CCCC(N3)C(=O)OCC(C)(C)C2)C1
IC50 (second compound 0.000949 µM): 18.1 nM
IC50 (second compound 0.003 µM): 16.9 nM
IC50 (second compound 0.00949 µM): 20.3 nM
IC50 (second compound 0.03 µM): 20 nM
IC50 (second compound 0.0949 µM): 18.8 nM
IC50 (second compound 0.3 µM): 11 nM
viability, T/C (second compound 0.000949 µM, first compound 0.000949 µM): 101%
viability, T/C (second compound 0.000949 µM, first compound 0.003 µM): 92.3%
viability, T/C (second compound 0.000949 µM, first compound 0.00949 µM): 59.5%
viability, T/C (second compound 0.000949 µM, first compound 0.03 µM): 39.7%
viability, T/C (second compound 0.000949 µM, first compound 0.0949 µM): 25.5%
viability, T/C (second compound 0.000949 µM, first compound 0.3 µM): 11.6%
viability, T/C (second compound 0.003 µM, first compound 0.000949 µM): 106%
viability, T/C (second compound 0.003 µM, first compound 0.003 µM): 79.5%
viability, T/C (second compound 0.003 µM, first compound 0.00949 µM): 63.7%
viability, T/C (second compound 0.003 µM, first compound 0.03 µM): 37.4%
viability, T/C (second compound 0.003 µM, first compound 0.0949 µM): 24.7%
viability, T/C (second compound 0.003 µM, first compound 0.3 µM): 10.6%
viability, T/C (second compound 0.00949 µM, first compound 0.000949 µM): 105%
viability, T/C (second compound 0.00949 µM, first compound 0.003 µM): 76.1%
viability, T/C (second compound 0.00949 µM, first compound 0.00949 µM): 68.5%
viability, T/C (second compound 0.00949 µM, first compound 0.03 µM): 45%
viability, T/C (second compound 0.00949 µM, first compound 0.0949 µM): 20.7%
viability, T/C (second compound 0.00949 µM, first compound 0.3 µM): 11.8%
viability, T/C (second compound 0.03 µM, first compound 0.000949 µM): 100%
viability, T/C (second compound 0.03 µM, first compound 0.003 µM): 79.5%
viability, T/C (second compound 0.03 µM, first compound 0.00949 µM): 73.9%
viability, T/C (second compound 0.03 µM, first compound 0.03 µM): 38.3%
viability, T/C (second compound 0.03 µM, first compound 0.0949 µM): 17.6%
viability, T/C (second compound 0.03 µM, first compound 0.3 µM): 11.6%
viability, T/C (second compound 0.0949 µM, first compound 0.000949 µM): 84.5%
viability, T/C (second compound 0.0949 µM, first compound 0.003 µM): 77.8%
viability, T/C (second compound 0.0949 µM, first compound 0.00949 µM): 68%
viability, T/C (second compound 0.0949 µM, first compound 0.03 µM): 38.5%
viability, T/C (second compound 0.0949 µM, first compound 0.0949 µM): 14.4%
viability, T/C (second compound 0.0949 µM, first compound 0.3 µM): 10.3%
viability, T/C (second compound 0.3 µM, first compound 0.000949 µM): 84.4%
viability, T/C (second compound 0.3 µM, first compound 0.003 µM): 70.1%
viability, T/C (second compound 0.3 µM, first compound 0.00949 µM): 56.5%
viability, T/C (second compound 0.3 µM, first compound 0.03 µM): 25.4%
viability, T/C (second compound 0.3 µM, first compound 0.0949 µM): 12.4%
viability, T/C (second compound 0.3 µM, first compound 0.3 µM): 7.96%

Nc1ccn(C2OC(CO)C(O)C2(F)F)c(=O)n1 (centres undefined) + C#Cc1c(F)ccc2cc(O)cc(-c3ncc4c(N5CC6CCC(C5)N6)nc(OCC56CCCN5CC(F)C6)nc4c3F)c12
IC50 (second compound 0.0316 µM): 86 nM
IC50 (second compound 0.1 µM): 201 nM
IC50 (second compound 0.316 µM): 180 nM
IC50 (second compound 1 µM): 10.2 nM
IC50 (second compound 3.16 µM): 3.16 nM
IC50 (second compound 10 µM): < 3.16 nM
viability, T/C (second compound 0.0316 µM, first compound 0.00316 µM): 84.9%
viability, T/C (second compound 0.0316 µM, first compound 0.01 µM): 105%
viability, T/C (second compound 0.0316 µM, first compound 0.0316 µM): 71.6%
viability, T/C (second compound 0.0316 µM, first compound 0.1 µM): 48.5%
viability, T/C (second compound 0.0316 µM, first compound 0.316 µM): 41.8%
viability, T/C (second compound 0.0316 µM, first compound 1 µM): 30.9%
viability, T/C (second compound 0.1 µM, first compound 0.00316 µM): 75.7%
viability, T/C (second compound 0.1 µM, first compound 0.01 µM): 88.7%
viability, T/C (second compound 0.1 µM, first compound 0.0316 µM): 70.6%
viability, T/C (second compound 0.1 µM, first compound 0.1 µM): 54.7%
viability, T/C (second compound 0.1 µM, first compound 0.316 µM): 51.6%
viability, T/C (second compound 0.1 µM, first compound 1 µM): 39.8%
viability, T/C (second compound 0.316 µM, first compound 0.00316 µM): 64%
viability, T/C (second compound 0.316 µM, first compound 0.01 µM): 71.1%
viability, T/C (second compound 0.316 µM, first compound 0.0316 µM): 49.4%
viability, T/C (second compound 0.316 µM, first compound 0.1 µM): 52.1%
viability, T/C (second compound 0.316 µM, first compound 0.316 µM): 49.8%
viability, T/C (second compound 0.316 µM, first compound 1 µM): 44%
viability, T/C (second compound 1 µM, first compound 0.00316 µM): 56.2%
viability, T/C (second compound 1 µM, first compound 0.01 µM): 55.5%
viability, T/C (second compound 1 µM, first compound 0.0316 µM): 40.8%
viability, T/C (second compound 1 µM, first compound 0.1 µM): 41.4%
viability, T/C (second compound 1 µM, first compound 0.316 µM): 45.7%
viability, T/C (second compound 1 µM, first compound 1 µM): 41.9%
viability, T/C (second compound 3.16 µM, first compound 0.00316 µM): 38.6%
viability, T/C (second compound 3.16 µM, first compound 0.01 µM): 55.4%
viability, T/C (second compound 3.16 µM, first compound 0.0316 µM): 50.8%
viability, T/C (second compound 3.16 µM, first compound 0.1 µM): 36.5%
viability, T/C (second compound 3.16 µM, first compound 0.316 µM): 39%
viability, T/C (second compound 3.16 µM, first compound 1 µM): 36.2%
viability, T/C (second compound 10 µM, first compound 0.00316 µM): 42.3%
viability, T/C (second compound 10 µM, first compound 0.01 µM): 53.9%
viability, T/C (second compound 10 µM, first compound 0.0316 µM): 48.9%
viability, T/C (second compound 10 µM, first compound 0.1 µM): 38.3%
viability, T/C (second compound 10 µM, first compound 0.316 µM): 34.1%
viability, T/C (second compound 10 µM, first compound 1 µM): 30.7%
